Test results from PubChem BioAssay (NCI).
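Grown in 96-well plates, cells were treated for 48 hours with each compound at five concentrations. Insufficient inhibition: endpoint recorded as highest concentration tested. GI50: concentration for 50% inhibition of growth. At the TGI there is no net growth.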

What was measured:
Experiment in all cases: inhibition of tumour cell growth, NCI panel, 48 h
HOP-18 NSCLC = system: HOP-18 NSCLC
DMS 114 small cell lung = system: DMS 114 small cell lung
XF 498 CNS = system: XF 498 CNS
DMS 273 small cell lung = system: DMS 273 small cell lung
M19-MEL melanoma = system: M19-MEL melanoma
KM20L2 colon = system: KM20L2 colon
SNB-78 CNS = system: SNB-78 CNS
MDA-N = system: MDA-N
RXF-631 renal = system: RXF-631 renal

Compound | TGI (HOP-18 NSCLC) | TGI (DMS 114 small cell lung) | TGI (XF 498 CNS) | TGI (DMS 273 small cell lung) | TGI (M19-MEL melanoma) | TGI (KM20L2 colon) | TGI (SNB-78 CNS) | TGI (MDA-N) | TGI (RXF-631 renal) | GI50 (HOP-18 NSCLC) | GI50 (DMS 114 small cell lung) | GI50 (XF 498 CNS) | GI50 (M19-MEL melanoma) | GI50 (KM20L2 colon) | GI50 (SNB-78 CNS)
C#CC1(O)CCC2[C@@H]3CCc4cc(Oc5nc(F)nc(-c6c7ccccc7cn6C)n5)ccc4C3CC[C@@]21C (stereo not given in full) | > 100 µM | > 53.2 µM | > 100 µM | > 100 µM | > 100 µM | > 100 µM | > 100 µM | – | – | – | – | – | – | – | –
CN(C)c1ccc(C(c2ccc(Cl)cc2)c2ccc(N(C)C)cc2)cc1 | – | – | – | – | – | – | – | > 100 µM | – | – | – | – | – | – | –
Cc1ccc(C)c(NC(=O)CC2SC(=Nc3ccccc3Cl)NC2=O)c1 (stereo not given) | > 100 µM | > 100 µM | > 100 µM | > 100 µM | > 100 µM | > 100 µM | > 100 µM | – | > 100 µM | – | – | – | – | – | –
O=c1[nH]c(=O)n(C2OC(CO)C(O)C2O)cc1OCC(F)(F)F (stereo not given) | > 100 µM | > 100 µM | > 100 µM | > 100 µM | > 100 µM | > 100 µM | > 100 µM | – | – | – | – | – | – | – | –
CC(=O)N(O)Cc1ccccc1 | – | > 100 µM | > 100 µM | – | > 100 µM | > 100 µM | > 100 µM | – | > 100 µM | – | – | – | – | – | –
c1ccc(P(=C2c3ccccc3-c3ccccc32)(c2ccccc2)c2ccccc2)cc1 | 80 µM | 7.78 µM | – | 19.2 µM | 20.3 µM | 8.21 µM | – | – | 28.9 µM | – | – | – | – | – | –
Clc1ccccc1C(Nc1ncccn1)Nc1ncccn1 | – | – | – | – | – | – | – | > 100 µM | – | – | – | – | – | – | –
CCOc1ccc(O)cc1[P+](c1ccccc1)(c1ccccc1)c1ccccc1 | 9.61 µM | – | 4.52 µM | 10.1 µM | 15.3 µM | 17.9 µM | 84.8 µM | – | – | – | – | – | – | – | –
Cc1ccc(NC(=O)/C(=N/N(C)C)C(C2OC(=O)c3ccccc32)[N+](=O)[O-])cc1 (stereo not given) | – | – | – | – | – | – | – | > 100 µM | – | – | – | – | – | – | –
O=c1[nH]c(=O)n(C2CC(O)C(CO)O2)cc1C#Cc1ccc(F)cc1 (stereo not given) | > 100 µM | > 100 µM | > 100 µM | > 100 µM | > 100 µM | > 100 µM | > 100 µM | – | – | – | – | – | – | – | –
COc1cc2c(cc1C1=NC(C)(C)CO1)OCO2 | > 100 µM | > 100 µM | > 100 µM | – | > 100 µM | > 100 µM | – | – | > 100 µM | – | – | – | – | – | –
CCN(CC)CCn1[nH]c2c3ccc(=O)cc3sc3c(NCCN)ccc1c32 | 13.6 µM | 1.52 µM | 0.974 µM | – | 1.48 µM | – | 4.49 µM | – | – | – | – | – | – | – | –
COC1OC(C)C2OC(C)(C)OC2C1OC(C)=O (stereo not given) | > 100 µM | – | > 100 µM | > 100 µM | > 100 µM | > 100 µM | > 100 µM | – | > 100 µM | – | – | – | – | – | –
CC12CCC3c4cc(Br)c(O)c(Br)c4CCC3C1CCC2O (stereo not given) | – | – | – | – | – | – | – | 14.2 µM | – | – | – | – | – | – | –
CCOC(=O)C(CNc1ccc(O)cc1)NC(=O)c1ccccc1 (stereo not given) | > 100 µM | > 100 µM | > 100 µM | > 100 µM | > 100 µM | > 100 µM | > 100 µM | – | – | – | – | – | – | – | –
C#CCN(C(=O)C(F)(F)F)c1ccc(C(=O)c2ccc(N(CC#C)C(=O)C(F)(F)F)cc2)cc1 | – | 55.1 µM | – | 63.9 µM | > 100 µM | > 100 µM | > 100 µM | – | – | – | – | – | – | – | –
CN(/N=C/c1cccc2cccnc12)c1c([N+](=O)[O-])cc([N+](=O)[O-])cc1[N+](=O)[O-] | > 100 µM | > 100 µM | > 100 µM | > 100 µM | > 100 µM | > 100 µM | > 100 µM | – | > 100 µM | – | – | – | – | – | –
O=C(N/N=C/c1cc(Cl)cc(Cl)c1[O-])c1ccccc1.O=C(N/N=C/c1cc(Cl)cc(Cl)c1[O-])c1ccccc1.[Co+2] | > 100 µM | 67.9 µM | > 100 µM | – | > 100 µM | > 100 µM | > 100 µM | – | – | 9.34 µM | 10.6 µM | 12.4 µM | 20.5 µM | 47.8 µM | 53.2 µM

Compound | TGI (HOP-18 NSCLC) | TGI (DMS 114 small cell lung) | TGI (XF 498 CNS) | TGI (DMS 273 small cell lung) | TGI (M19-MEL melanoma) | TGI (KM20L2 colon) | TGI (SNB-78 CNS) | TGI (MDA-N) | TGI (RXF-631 renal) | GI50 (HOP-18 NSCLC) | GI50 (DMS 114 small cell lung) | GI50 (XF 498 CNS) | GI50 (M19-MEL melanoma) | GI50 (KM20L2 colon) | GI50 (SNB-78 CNS)
Oc1[nH]c2ccccc2c1N=Nc1c(F)c(F)c(F)c(F)c1F | – | – | – | – | – | – | – | > 100 µM | – | – | – | – | – | – | –
NCCCCCCNCc1cccc2ccccc12 | > 100 µM | > 100 µM | > 100 µM | – | > 100 µM | > 100 µM | > 100 µM | – | – | – | – | – | – | – | –
O=C(C/C(CCC(=O)N(Cc1ccccc1)Cc1ccccc1)=N/Nc1ccc([N+](=O)[O-])cc1[N+](=O)[O-])c1ccccc1 | > 100 µM | > 100 µM | > 100 µM | > 100 µM | > 100 µM | > 100 µM | > 100 µM | – | – | – | – | – | – | – | –
Cc1nc2sccn2c1C(=O)NC(=O)Nc1ccc(Cl)cc1 | – | > 100 µM | 69.2 µM | > 100 µM | > 100 µM | > 100 µM | > 100 µM | – | – | – | – | – | – | – | –
O=C(CCc1nnc2s/c(=C\c3ccccc3Cl)c(=O)n12)Nc1cc(Cl)ccc1Cl | > 100 µM | > 100 µM | > 100 µM | – | > 100 µM | – | > 100 µM | – | – | – | – | – | – | – | –
S=C=NCCc1ccccc1 | – | 1.97 µM | 5.35 µM | 1.1 µM | 2.95 µM | 6.68 µM | 5.78 µM | – | – | – | – | – | – | – | –
CN(C)CCNC(=O)c1cccc2ccc(-c3ccc(-c4ccccc4)cc3)nc12 | 26.4 µM | 3.07 µM | – | 3.24 µM | 3.23 µM | 4.67 µM | 28.3 µM | – | 3.99 µM | – | – | – | – | – | –
CCCCCCCCCCCCCC(=O)CSCCNC(=O)CCNC(=O)[C@@H](O)C(C)(C)COP(=O)(O)OP(=O)(O)OCC1OC(n2cnc3c(N)ncnc32)C(O)C1OP(=O)(O)O (stereo not given in full) | 31.7 µM | 33.3 µM | 34.3 µM | 26.2 µM | 35.3 µM | 48 µM | 36.5 µM | – | – | – | – | – | – | – | –
Cn1c(=S)c2[nH]c(SCCN3C(=O)c4ccccc4C3=O)nc2n(C)c1=O | – | – | – | – | – | – | – | > 100 µM | – | – | – | – | – | – | –
Cc1cccc(NC(=O)/C=C/c2ccc([N+](=O)[O-])cc2)c1 | – | – | – | – | – | – | – | > 52.2 µM | – | – | – | – | – | – | –
CCOC(=O)/C(=C/c1ccc(N(CCC#N)CCC#N)cc1C)NC(=O)/C=C/c1ccccc1 | – | > 100 µM | > 100 µM | > 100 µM | > 100 µM | > 100 µM | > 100 µM | – | – | – | – | – | – | – | –
NNC(=O)c1ccc(OCc2nc3ccccc3[nH]2)cc1 | – | – | – | – | – | – | – | > 100 µM | – | – | – | – | – | – | –
Cn1c(=O)c2[nH]cnc2n(CC(N)=O)c1=O | – | > 100 µM | > 100 µM | > 100 µM | > 100 µM | – | > 100 µM | – | – | – | – | – | – | – | –
CC(=O)NNc1nc(C)c(C(=O)NNC(=O)C(=O)Nc2ccc([N+](=O)[O-])cc2C#N)s1 | – | > 100 µM | > 100 µM | > 100 µM | > 100 µM | > 100 µM | > 100 µM | – | – | – | – | – | – | – | –
CC(C)(C)OC(=O)c1cccnc1/C=N/O | > 100 µM | > 100 µM | > 100 µM | > 100 µM | > 100 µM | > 100 µM | > 100 µM | – | > 100 µM | – | – | – | – | – | –
C=C(C)C(=O)O[C@@H]1C/C(C)=C\[C@H](OC(C)=O)C[C@](C)(O)/C=C2/OC(=O)C(COC(C)=O)=C21 | – | – | – | – | – | – | – | 1.98 µM | – | – | – | – | – | – | –
CCOC(=O)C1([Se]c2ccccc2)CCCC1=O (stereo not given) | 59.7 µM | 15.3 µM | 36.9 µM | 28.5 µM | 51.1 µM | > 100 µM | 54.9 µM | – | > 100 µM | – | – | – | – | – | –
COC1C2c3cc4c(cc3CC(C#N)(c3ccccc32)N1C(=O)c1ccccc1)OCO4 (stereo not given) | > 100 µM | > 100 µM | > 100 µM | > 100 µM | – | > 100 µM | > 100 µM | – | > 100 µM | – | – | – | – | – | –
